Format in all cases: cell-based
One experiment relates to PSA-luciferase promoter. Put plainly: DHT-induced transcription from PSA-luciferase promoter. To be noted: LAPC4 cells. The text has this:
FIG. 9. […] This effect of D2 could be rescued by overexpression of AR (bottom left panel) or PELP1 (bottom right panel).
At the protein level, D2, but not D1, was able to block DHT-induced expression of PSA protein. Again, the suppresion of DHT-induced transcription from an ARE could be overcome by overexpression of either AR or PELP1 ([…]). Overexpression of PELP1 was able to rescue the D2-mediated suppression of DHT-induced transcription nearly back to baseline.

The subject of the next experiment is erk. Put plainly: DHT-mediated non-genomic activation of erk. To be noted: FIG. 12.
The next experiment concerns AR nuclear translocation. Put plainly: DHT-induced nuclear translocation of AR in LNCaP cells. The method, then: FIGS. 13A-B. Effect on DHT-induced nuclear translocation of exogenous AR-GFP in LNCaP cells transiently transfected with AR. (a) Blue stain is DAPI (for nucleus) and green is AR (GFP). Baseline untreated LNCaP cells are shown in top left panel. Cells were pretreated with DMSO (left panel), 100 nM D1 (middle panel) and 100 nM D2 (right panel) and then treated with 1 nM DHT. AR nuclear translocation was visualized at 4 hours following DHT treatment. (b) Nuclear and cytoplasmic extracts were collected from similar cells and subject to western analyses.
FIG. 13 shos that pretreatment with D2 blocked DHT-induced translocation of AR-GFP to the nucleus in LnCaP cells compared to the control D1 or DMSO.

Structures are written as SMILES. “Also recorded” adds a separate entry of the source.

Turning to `COC(=O)c1ccc(NC(=O)c2ccc([N+](=O)[O-])c(OCC(C)C)c2)c(OCC(C)C)c1` [D2], in the experiment with PSA-luciferase promoter, the “DHT-induced transcription from PSA-luciferase promoter” value is listed as “able to block; also recorded: block DHT-Induced gene expression”. Moreover, the “DHT-mediated non-genomic activation of erk” value with erk was “no effect; also recorded: does not block”. For the same compound, the “DHT-induced translocation of AR-GFP to the nucleus (imaging)” value in the experiment with AR nuclear translocation (100 nM pretreatment, 1 nM DHT, 4 hours) is “blocked”. For the same compound, the “AR nuclear translocation (nuclear and cytoplasmic extracts)” value in the experiment with AR nuclear translocation (upon addition of DHT) is “prevents AR nuclear translocation”.
